Reference: EP4273147A1, “SUBSTITUTED SPIROLACTAMS, SALTS THEREOF AND THEIR USE AS HERBICIDALLY ACTIVE SUBSTANCES” (Bayer Aktiengesellschaft, priority 2022, dated 2023)

Columns and labels:
[1] = tested on: LOLRI; experiment: Herbicidal pre-emergence action (Table A3); assay type: in vivo, Lolium rigidum; settings: application rate 1280 g/ha; visual grading after ca. 3 weeks
Procedure, shortened: (§1)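 Pots: sandy loam. Sowing: one mono- and one dicot weed species together per pot. Seeds covered with soil.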

[2] = tested on: MATIN; experiment: Herbicidal pre-emergence action (Table A4); assay type: in vivo, Matricaria inodora; settings: application rate 1280 g/ha; visual grading after ca. 3 weeks
Procedure, shortened: as §1

[3] = tested on: SETVI; experiment: Herbicidal pre-emergence action (Table A5); assay type: in vivo, Setaria viridis; settings: application rate 320 g/ha; visual grading after ca. 3 weeks
Procedure, shortened: as §1

[4] = tested on: STEME; experiment: Herbicidal pre-emergence action (Table A6); assay type: in vivo, Stellaria media; settings: application rate 320 g/ha; visual grading after ca. 3 weeks
Procedure, shortened: as §1

[5] = tested on: POAAN; experiment: Herbicidal pre-emergence action (Table A7); assay type: in vivo, Poa annua; settings: application rate 320 g/ha; visual grading after ca. 3 weeks
Procedure, shortened: as §1

[6] = tested on: POAAN; experiment: Herbicidal post-emergence action (Table B7); assay type: in vivo, Poa annua; settings: application rate 1280 g/ha
Procedure, shortened: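 Sow weeds in sandy loam pots, one species each; grow in greenhouse 2–3 weeks to one-leaf stage; treat; hold ~3 weeks under optimum conditions; rate damage visually vs untreated (0–100%).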

[7] = tested on: ALOMY; experiment: Herbicidal pre-emergence action, section C (Table C2); assay type: in vivo, Alopecurus myosuroides; settings: application rate 320 g/ha; visual grading after ca. 3 weeks
[8] = tested on: ECHCG; experiment: Herbicidal pre-emergence action, section C (Table C6); assay type: in vivo, Echinochloa crus-galli; settings: application rate 320 g/ha; visual grading after ca. 3 weeks
[9] = tested on: SETVI; experiment: Herbicidal pre-emergence action, section C (Table C10); assay type: in vivo, Setaria viridis; settings: application rate 320 g/ha; visual grading after ca. 3 weeks
[10] = tested on: VERPE; experiment: Herbicidal pre-emergence action, section C (Table C11); assay type: in vivo, Veronica persica; settings: visual grading after ca. 3 weeks
[11] = tested on: VIOTR; experiment: Herbicidal pre-emergence action, section C (Table C12); assay type: in vivo, Viola tricolor; settings: visual grading after ca. 3 weeks
[12] = tested on: ZEAMX; experiment: Pre-emergence effects on crop plants (Table D1); assay type: in vivo, Zea mays; settings: crop plant; application rate 320 g/ha; visual grading after ca. 3 weeks
[13] = tested on: TRZAS; experiment: Pre-emergence effects on crop plants (Table D2); assay type: in vivo, Triticum aestivum; settings: crop plant; application rate 320 g/ha; visual grading after ca. 3 weeks
[14] = tested on: GLXMA; experiment: Pre-emergence effects on crop plants (Table D4); assay type: in vivo, Glycine max; settings: crop plant; application rate 80 g/ha; visual grading after ca. 3 weeks
[15] = tested on: BRSNW; experiment: Pre-emergence effects on crop plants (Table D5); assay type: in vivo, Brassica napus; settings: crop plant; application rate 80 g/ha; visual grading after ca. 3 weeks
[16] = tested on: ECHCG; experiment: Herbicidal post-emergence action, section E (Table E5); assay type: in vivo, Echinochloa crus-galli; settings: application rate 320 g/ha; assessed visually after ca. 3 weeks
Source text: (§2) 2 to 3 weeks after sowing, the test plants were sprayed in the single-leaf stage.

[17] = tested on: VERPE; experiment: Herbicidal post-emergence action, section E (Table E9); assay type: in vivo, Veronica persica; settings: application rate 320 g/ha; assessed visually after ca. 3 weeks
Source text: as §2

[18] = tested on: ZEAMX; experiment: Post-emergence effects on crop plants (Table F1); assay type: in vivo, Zea mays; settings: application rate 320 g/ha, crop plant ZEAMX
Source text: as §2

[19] = tested on: TRZAS; experiment: Post-emergence effects on crop plants (Table F2); assay type: in vivo, Triticum aestivum; settings: application rate 320 g/ha, crop plant TRZAS
Source text: as §2

[20] = tested on: ORYZA; experiment: Post-emergence effects on crop plants (Table F3); assay type: in vivo, Oryza sativa; settings: application rate 320 g/ha, crop plant ORYZA
Source text: as §2

[21] = tested on: BRSNW; experiment: Post-emergence effects on crop plants (Table F5); assay type: in vivo, Brassica napus; settings: crop plant BRSNW
Source text: as §2

[22] = tested on: ORYZA; experiment: Pre-emergence effects on crop plants (Table D3); settings: crop plant; application rate 80 g/ha; visual grading after ca. 3 weeks
[23] = tested on: DIGSA; experiment: Herbicidal pre-emergence action, section C (Table C5); assay type: in vivo, Digitaria sanguinalis; settings: application rate 320 g/ha; visual grading after ca. 3 weeks
Source text: (§3) Seeds of mono- and dicotyledonous weed plants and crop plants were sown, in plastic or organic planting pots, in sandy loam and covered with soil. The compounds according to the invention, formulated in the form of wettable powders (WP) or as emulsifiable concentrates (EC), were applied to the surface of the covering soil as aqueous suspension or emulsion, with the addition of 0.5% of an additive, at an application rate of 600 1 of water/ha (converted). Following treatment, the pots were placed in a greenhouse and kept under optimum growth conditions for the test plants.

[24] = tested on: POLCO; experiment: Herbicidal pre-emergence action, section C (Table C9); assay type: in vivo, Polygonum convolvulus; settings: application rate 320 g/ha; visual grading after ca. 3 weeks
Source text: as §3

[25] = tested on: VIOTR; experiment: Herbicidal post-emergence action, section E (Table E10); assay type: in vivo, Viola tricolor; settings: application rate 320 g/ha; assessed visually after ca. 3 weeks
Source text: as §2

O=C1N(Cc2ccc(Cl)s2)CCCC12CCCN(Cc1ccc(Cl)s1)C2=O (racemic) [I-022]
0%: pre-emergence activity against ZEAMX [12] | pre-emergence activity against BRSNW [15] | post-emergence activity against ZEAMX [18]
10%: pre-emergence activity against TRZAS [13] | post-emergence activity against TRZAS [19] | post-emergence activity against ORYZA [20] | pre-emergence activity against ORYZA [22]
20%: pre-emergence activity against GLXMA [14] | post-emergence activity against BRSNW ([21]; application rate 80 g/ha)
100%: pre-emergence activity against SETVI [3] | pre-emergence activity against STEME [4] | pre-emergence activity against POAAN [5] | pre-emergence activity against ECHCG [8] | pre-emergence activity against SETVI [9] | pre-emergence activity against VERPE ([10]; application rate 80 g/ha)
90%: pre-emergence activity against LOLRI [1] | pre-emergence activity against MATIN [2] | post-emergence activity against POAAN [6] | pre-emergence activity against ALOMY [7] | post-emergence activity against ECHCG [16]
80%: pre-emergence activity against VIOTR ([11]; application rate 320 g/ha) | post-emergence activity against VERPE [17]

O=C1N(Cc2cc(F)c(F)cc2F)CCCC12CCCN(Cc1cc(F)c(F)cc1F)C2=O (single isomer, unassigned; (+)) [I-215, (+)-2,8-bis(2,4,5-trifluorophenylmethyl)-2,8-diazaspiro[5.5]undecane-1,7-dione]
90%: pre-emergence activity against VIOTR ([11]; application rate 80 g/ha) | post-emergence activity against ECHCG [16]
80%: pre-emergence activity against POLCO [24] | pre-emergence activity against VERPE ([10]; application rate 320 g/ha) | post-emergence activity against VIOTR [25]
0%: post-emergence activity against ZEAMX [18] | post-emergence activity against TRZAS [19] | post-emergence activity against BRSNW ([21]; application rate 320 g/ha)
100%: pre-emergence activity against ALOMY [7] | pre-emergence activity against DIGSA [23] | pre-emergence activity against ECHCG [8] | pre-emergence activity against SETVI [9]
